Results from patent EP4635969A1, “NOVEL GLUCOCORTICOID, METHOD FOR PREPARING SAME, AND USE THEREOF” (Tianjin Pharmaceutical Biotechnology Co., Ltd., priority 2022, dated 2024).

Experiments:
[1] = tested on: inflammatory cytokines (TNF-α); test: Anti-uveitis pharmacodynamic experiment (LPS model): inflammatory cytokines in aqueous humor (ELISA); format: in vivo, male SD rats; details: values not given
Protocol: Pharmacological Example 5. Pharmacodynamic Experiment on Anti-Uveitis
Test samples: Compounds 23 and 26 were prepared as 5 mg/5 mL ophthalmic suspensions with reference to the formulation of Fluorometholone Eye Drops, and stored at room temperature protected from light until use.
Positive control drug: Fluorometholone Eye Drops (specification: 5 mL/5 mg; Santen Pharmaceutical (CHINA) Co., Ltd.; Lot No. : J20180068) was used as the positive control drug and stored at room temperature protected from light until use.
Fifty male SD rats underwent a one-week adaptive feeding period. The animals were randomly divided into 5 groups: Group 1 served as the blank control group, and Groups 2 to 5 were the model group, fluorometholone group, compound 23 group, and compound 26 group, respectively. Groups 2 to 5 were used to establish rat uveitis models by single subcutaneous injection of 1 mg/kg LPS (Salmonella; Sigma; Lot No. 0000164114) into the plantar tissue of the hindpaw. Salmonella endotoxin was dissolved in normal saline to prepare an injection solution at a concentration of 2 mg/mL, which was injected subcutaneously at 1 mg/kg into the plantar tissue of one paw of the rats. Group 1 was injected with an equal volume of normal saline.
After modeling, 40 µL of normal saline was administered to the eyes (bilateral) of the rats in the blank control group and model group, and 40 µL of the corresponding drugs were administered to the eyes (bilateral) of the […] in the compound 23 group, compound 26 group, and positive drug fluorometholone group, 3 times a day for 2 days. Table 8. Animal grouping and drug administration dosages
Thirty hours after modeling, aqueous humor was collected from both eyes of rats, and partial eyeball tissues of rats were collected. The level of the inflammatory cytokines (TNF-α) was detected using a rat ELISA assay kit.
Statistical analysis was performed using SPSS software. Measurement data were expressed as mean ± standard deviation. One-way ANOVA was used for intergroup comparisons. For data with homogeneous variance, LSD test was used; for data with heterogeneous variance, Dunnett-t test was used. A value of P < 0.05 was considered statistically significant.

[2] = tested on: inflammatory bowel disease model rats; test: Inflammatory bowel disease experiment (TNBS model): macroscopic injury score of the colon; format: in vivo; details: compared with the model group
Protocol: Pharmacological Example 7: Pharmacodynamic Experiment on Inflammatory Bowel Disease in Rats
Test samples: The jet-milled compounds 23 and 34 were accurately weighed and prepared as 2 mg/mL clear solutions using anhydrous ethanol, respectively. The solutions were then diluted to 0.2 mg/mL with double-distilled water as the test samples, and stored at room temperature protected from light until use.
Animals in Groups 2 to 5 were subjected to trinitrobenzene sulfonic acid (TNBS) modeling as follows: A 5% TNBS aqueous solution was adjusted to 20 mg/mL TNBS (50% ethanol solution) with alcohol and water. After fasting for 24 h, the rats were anesthetized using an inhalation anesthesia machine. A silicone hose was inserted approximately 8 cm into the anus, and then TNBS was injected at a dose of 50 mg/kg. After injection, the rats were placed vertically for 1 min to prevent the backflow of TNBS solution. Then, the rats were placed into their cages for observation until the animals recovered.
Drug administration started one day before modeling, with one dose administered 1 hour before modeling and then once a day for 5 consecutive days. […] Table 14. Animal grouping and drug administration dosages
The experiment ended on day 5 after TNBS modeling. After isoflurane anesthesia, blood was collected from the hearts, and the rats were euthanized. The abdominal cavity was rapidly opened, and the macroscopic injury scoring of the colon in rats was performed based on the adhesion, obstruction, thickening of the colonic wall, colonic congestion, and necrosis in the colon area. After clearing the colonic contents, the colonic samples were longitudinally incised. The proximal 2/3 of the colon was excised, prepared into Swiss rolls, and stored in 4% neutral buffered formalin for histopathological analysis. Tissues were trimmed, dehydrated, paraffin-embedded, and sectioned (approximately 5 µm thickness), stained with hematoxylin-eosin (HE), and observed for pathological changes. Pathologists performed blind scoring of colonic lesions.
Quantitative indices were first subjected to Bartlett's test for homogeneity of variance. When the variance was homogeneous (P > 0.05), one-way analysis of variance (ANOVA) was used for a statistical test; if there was statistical significance (P ≤ 0.05), Dunnett's t-test (Dunnett method) was used to compare intergroup differences; if there was no statistical significance (P > 0.05), the statistical analysis was concluded. When the variance was heterogeneous (P ≤ 0.05), Kruskal-Wallis H rank-sum test (K-W method) was used for statistical analysis: if there was statistical significance (P ≤ 0.05), Mann-Whitney U test (M-W method) was further performed to compare intergroup differences; if there was no statistical significance (P > 0.05), the statistical analysis was concluded.

[3] = Determination of stability in plasma in vitro, human plasma (LC-MS/MS); format: in vitro ADME; details: same experimental conditions (human and mouse plasma)
Protocol: Pharmacological Example 3: Determination of Stability in Plasma in Vitro
The stock solution was diluted with acetonitrile to obtain a working solution at a concentration of 100 µ M. The solution should be freshly prepared prior to use and maintained at room temperature during application.
990 µ L of human and mouse plasma (N = 2) were separately pipetted and pre-incubated at 37 °C for 5 min. Then, 10 µ L of the test compound working solution was added and vortexed thoroughly (the final concentration of the test compound was 1 µ M). Immediately, 50 µ L of the plasma sample was added to 150 µ L of ice-cold precipitation agent containing the internal standard and vortexed thoroughly as the 0-time sample. The remaining plasma sample was continuously incubated at 37 °C, and 50 µ L of the plasma sample was aspirated and added to 150 µ L of ice-cold precipitation agent containing the internal standard at preset sampling time points, followed by thorough vortexing. The collected samples were stored in a freezer at -60 to -90 °C until analysis.
The concentration of the test compound was determined by LC-MS/MS, and its degradation was monitored. (semi-quantitative determination was conducted by comparing the peak area of the analyte to that of the internal standard).

[4] = tested on: asthma model mice; test: Anti-asthma pharmacodynamic experiment: airway hyperresponsiveness (Penh) after methacholine challenge; format: in vivo, female BALB/c mice; details: compared with the model group
[5] = tested on: inflammatory cytokines IL-6 and IL-12; test: Anti-asthma pharmacodynamic experiment: inflammatory cytokines in bronchoalveolar lavage fluid (ELISA); format: in vivo, female BALB/c mice; details: compared with the model group
[6] = tested on: uveitis model rats; test: Anti-uveitis pharmacodynamic experiment (LPS model): ocular pathological score; format: in vivo, male SD rats; details: compared with the model group
[7] = tested on: dry eye syndrome model New Zealand rabbits; test: Dry eye syndrome experiment (benzalkonium chloride model): tear secretion test with phenol red cotton threads; format: in vivo, male New Zealand White rabbits; details: for tear secretion: compared with the model group
[8] = tested on: dry eye syndrome model New Zealand rabbits; test: Dry eye syndrome experiment (benzalkonium chloride model): corneal fluorescein sodium staining; format: in vivo, male New Zealand White rabbits; details: for inflammatory response on the ocular surface / ocular symptoms: compared with the model group
Protocol: Pharmacological Example 6: Therapeutic Pharmacodynamic Experiment on Dry Eye Syndrome in New Zealand Rabbits
Positive control drug: Fluorometholone Eye Drops (specification: 5 mL/5 mg; Santen Pharmaceutical (CHINA) Co., Ltd.; Lot No.: 1FM6625) was used as the positive control drug and stored at room temperature protected from light until use.
Thirty male New Zealand White rabbits (conventional grade) were prepared. Six rabbits were randomly selected as the blank control group, and the remaining animals were administered 0.1% benzalkonium chloride to the left eye twice daily (morning and evening) , 10 µL/animal each time. […] During the administration, all animals except the blank control group were administered 10 µL of 0.1% benzalkonium chloride to the left eye once daily to maintain dry eye symptoms..
• Test time: D3, D7, D15; • Test animals: All animals were tested before grouping; all enrolled surviving animals were tested after administration; • Test method: 2 µL of 1% Fluorescein sodium was dropped into the conjunctival sac. After 5 s, the excess fluorescein was rinsed with 0.9% normal saline. The conjunctival staining was observed under a slit lamp with cobalt blue diffused light.
The normality and homogeneity of variance were tested by Levene's test. If there was no statistical significance (P > 0.05), one-way analysis of variance (ANOVA) was used for statistical analysis. If ANOVA was statistically significant (P ≤ 0.05), LSD test (parametric method) was used for comparative analysis. If the variance was heterogeneous (P ≤ 0.05), Kruskal-Wallis test was used. If the Kruskal-Wallis test was statistically significant (P ≤ 0.05), Dunnett's test (nonparametric method) was used for comparative analysis.

[9] = D3, 1 mg/mL, 50 µL/eye, 3 times a day for 14 days
[10] = D7, 1 mg/mL, 50 µL/eye, 3 times a day for 14 days
[11] = D15, 1 mg/mL, 50 µL/eye, 3 times a day for 14 days

SMILES	inflammatory cytokines in aqueous humor [1]	inflammatory response on the intestinal surface / intestinal symptoms [2]	plasma instability [3]	Effects on airway hyperresponsiveness (Penh values) in mice [4]	Effects on inflammatory cytokines in bronchoalveolar lavage fluid of mice [5]	ocular abnormalities / ocular pathological score [6]	tear secretion [7]	inflammatory response on the ocular surface / ocular symptoms [8]	Wetting length of phenol red cotton threads (mm) D0 ([7]; D0, 1 mg/mL, 50 µL/eye, 3 times a day for 14 days) [mm]	Wetting length of phenol red cotton threads (mm) D3 [7, 9] [mm]	Wetting length of phenol red cotton threads (mm) D7 [7, 10] [mm]	Wetting length of phenol red cotton threads (mm) D15 [7, 11] [mm]	Corneal fluorescein sodium staining score D3 [8, 9]	Corneal fluorescein sodium staining score D7 [8, 10]	Corneal fluorescein sodium staining score D15 [8, 11]
C[C@]12C=CC(=O)C=C1CC[C@H]1[C@@H]3C[C@H]4OC(c5ccc(COC6CCOC6=O)cc5)O[C@@]4(C(=O)CO)[C@@]3(C)C[C@H](O)[C@@]12Cl (stereo partly drawn) [Compound 22, (6aS,6bR,7S,8aS,8bS,11aR,12aS,12bS)-6b-Chloro-7-hydroxy-8b-(2-hydroxyacetyl)-6a,8a-dimethyl-10-(4-(((2-oxotetrahydrofuran-3-yl)oxy)methyl)phenyl)-1,2,6a,6b,7,8,8a,8b,11a,12,12a,12b-do decahydro-4H-naphtho[2',1':4,5]indeno[1,2-d][1,3]dioxol-4-one]	suppressed inflammatory cytokines in aqueous humor	significantly alleviated the intestinal symptoms in inflammatory bowel disease model rats	exhibited the characteristic of plasma instability	significantly decreased the Penh values in mice	pharmacological effects similar to those of compound 23	significantly improved ocular abnormalities	significantly increased the tear secretion	significantly alleviated the ocular symptoms in dry eye syndrome model New Zealand rabbits	–	–	–	–	–	–	–
C[C@]12C=CC(=O)C=C1CC[C@H]1[C@@H]3C[C@H]4OC(c5ccc(CSC6COC(=O)C6)cc5Cl)O[C@@]4(C(=O)CO)[C@@]3(C)C[C@H](O)[C@@]12F (stereo partly drawn) [Compound 20, (6aS,6bR,7S,8aS,8bS,11aR,12aS,12bS)-10-(2-Chloro-4-(((5-oxotetrahydrofuran-3-yl)thio)methyl)phenyl)-6b-fluoro-7-hydroxy-8b-(2-hydroxyacetyl)-6a,8a-dimethyl-1,2,6a,6b,7,8,8a,8b,11a,12,12a, 12b-dodecahydro-4H-naphtho[2',1':4,5]indeno[1,2-d][1,3]dioxol-4-one]	suppressed inflammatory cytokines in aqueous humor	significantly alleviated the intestinal symptoms in inflammatory bowel disease model rats	exhibited the characteristic of plasma instability	significantly decreased the Penh values in mice	pharmacological effects similar to those of compound 23	significantly improved ocular abnormalities	significantly increased the tear secretion on day 15	significantly inhibited the inflammatory response on the ocular surface on day 15	27.76 ± 6.04	23.39 ± 3.93	29.78 ± 2.74	35.28 ± 3.21	2.33 ± 0.82	1.5 ± 0.55	1.1 ± 0.52
C[C@]12C=CC(=O)C=C1CC[C@H]1[C@@H]3C[C@H]4OC(c5ccc(COC6CCOC6=O)cc5)O[C@@]4(C(=O)CO)[C@@]3(C)C[C@H](O)[C@@]12F (stereo partly drawn) [Compound 16, (6aS,6bR,7S,8aS,8bS,11aR,12aS,12bS)-6b-Fluoro-7-hydroxy-8b-(2-hydroxyacetyl)-6a,8a-dimethyl-10-(4-(((2-oxotetrahydrofuran-3-yl)oxy)methyl)phenyl)-1,2,6a,6b,7,8,8a,8b,11a,12,12a,12b-do decahydro-4H-naphtho[2',1':4,5]indeno[1,2-d][1,3]dioxol-4-one]	suppressed inflammatory cytokines in aqueous humor	significantly alleviated the intestinal symptoms in inflammatory bowel disease model rats	exhibited the characteristic of plasma instability	significantly decreased the Penh values in mice	pharmacological effects similar to those of compound 23	significantly improved ocular abnormalities	significantly increased the tear secretion	significantly alleviated the ocular symptoms in dry eye syndrome model New Zealand rabbits	–	–	–	–	–	–	–
